Series [1] deals with water-immersion restraint stress-induced gastric ulcer. Nature of the series: Inhibitory effect on water-immersion restraint stress-induced gastric ulcer. The series is classed as in vivo. The settings on record: male SD rats, oral, 10 mg/kg, 7 h water-immersion restraint stress. The protocol:
Male 7-week SD rats were fasted for 24 hours, with a fast of water beginning in early morning of the day when the experiments were performed. The rats were classified into groups each consisting of five rats, such that all the groups have substantially the same average weight. Before giving a stress to the rats, the compounds of the Examples indicated in TABLE 1 were orally administered as specimen drugs to the rats, with a dose of 10 mg/kg. The rats were then kept in stress cages, and were given a stress by immersing the cages in a water bath kept at a substantially constant temperature of 23°±1° C., such that the water level was at the height of the xiphoid of the rats. Seven hours later, the specimen rats were sacrificed by ether, and the mucosa of the stomach of each rat was semi-fixed with 2% formalin. The longitudinal length of the damaged area of the gastric mucosa was measured. A sum of the measured length values of the rats of each group was calculated as an ulcer index. An anti-ulcer or ulcer inhibitory percent (%) was calculated as {1-(ulcer index of each group of specimen rats)/(ulcer index of non-specimen group)}×100.

Series [2] relates to acetic acid-induced gastric ulcer. Nature of the series: Healing effect on acetic acid-induced gastric ulcer of rat. To be noted: male Donryu rat, oral, 50 mg/kg two times a day, 10 consecutive days; ulcer surface area. It is filed as in vivo. The protocol: A male Donryu rat of 7-week age was subjected to abdominal incision to expose the stomach, with pentobarbital used as an anesthesia. Using a metal ring having an inside diameter of 10 mm, 200 μL of glacial acetic acid was applied for contact with a serosa-side part of a boundary area between the antrum and the corpus body. The abdomen of the specimen rat subjected to the glacial acetic acid was closed by an operation, and the rat was then fed in a normal way. The compound obtained in Example 16 was orally administered as a specimen drug to the specimen rat two times a day (at 9:00 a.m. and 5:00 p.m.), each time with a dose of 50 mg/kg, beginning on the day following the day on which the glacial acetic acid was applied to the rat. The oral administration continued for 10 consecutive days, with a total of 20 administrations. On the day following the last day of administration, the specimen rat was sacrificed with ether, and the ulcer portion of the rat was fixed with formalin. The surface area of the ulcer portion was measured. The healing percent (%) calculated on the basis of the measured surface area was 28.9%.

Series [3] concerns hydrochloric acid.ethanol-induced gastric ulcer. Nature of the series: Inhibitory effect on hydrochloric acid.ethanol-induced gastric ulcer. To be noted: male SD rats, oral, 30 min before 98% ethanol containing 200 mM hydrochloric acid; for inhibition in vivo at 30 mg/kg: Rattus norvegicus, 1 h, read-out: Inhibitory Percent (ulcer inhibitory percent). It is filed as in vivo. As for the experimental part:
Male SD rats of 7-week age were fasted for 24 hours, with a fast of water beginning in early morning of the day when the experiments were performed. The rats were classified into groups each consisting of five rats, such that all the groups have substantially the same average weight. Before giving hydrochloric acid.ethanol to the rats, the compounds of the Examples indicated in TABLE 2 were orally administered as specimen drugs to the rats, with a dose of 30 mg/kg. Thirty minutes later, 1 mL of 98% ethanol containing 200 mM of hydrochloric acid was orally administered to each specimen rat. One hour later, the specimen rats were sacrificed by ether, and the mucosa of the stomach of each rat was semi-fixed with 2% formalin. The longitudinal length of the damaged area of the gastric mucosa was measured, and the anti-ulcer percent values of the individual specimen drugs were calculated on the basis of the sum of the measured length values of each group of the specimen rats, in the same manner as in Example 68.

A short description of series [4]: Single-dose toxicity study. To be noted: mouse, in vivo, male ddY mice, oral, observed two weeks, read-out: median lethal dose LD50. As for the experimental part: Ten male ddY mice (each having a weight of 22-28 g) were used as specimen animal in a cage kept at a substantially constant temperature of 23°±1° C. and under a substantially constant humidity of 55±5%. The compound prepared in Example 39, that is, 2-(2-dimethylaminobenzylthio)-5,5-dimethylimidazolin-4-thione was used as the specimen drug. This compound was suspended in a 2% solution of polysorbate 80, and the suspension was administered to each specimen mouse, with different doses. […] On the basis of the death percent, lethal dose (LD50) which causes a 50% death was obtained as an index indicative of the single dose toxicity. The obtained median lethal dose LD50 (oral administration) was 2000 mg/kg or more. It was thus confirmed that the median lethal dose LD50 (oral administration) of the compound according to the present invention was sufficiently large, indicating a low degree of toxicity or a high degree of safety.

A value given as a limit tells only on which side of the number the result lay.

What is called LD50 is the dose at which mortality reaches 50%.

Turning to `CN(C)c1ccccc1CSC1=NC(C)(C)C(=O)N1` [Example 16, 2-(2-dimethylaminobenzylthio)-5,5-dimethylimidazolin-4-one], in series [1], the “Inhibitory Percent (ulcer inhibitory percent)” value (“Inhibitory Percent” for short) was 82.4%. The healing percent in series [2] turned out to be 28.9%. As to `CN1C(=O)C(C)(C)N=C1SCc1ccccc1N(C)C` [Example 35, 1-N-methyl-2-(2-dimethylaminobenzylthio)-4,4-dimethyl-2-imidazolin-5-one], the “Inhibitory Percent” value in series [1] is given as 30.6%. On to `CC1N=C(SCc2ccccc2N(C)C)NC1=O` (centres unmarked) [Example 22, 2-(2-dimethylaminobenzylthio)-5-methylimidazolin-4-one], for which the “Inhibitory Percent” value in series [1] is 48.9%. With `CN(C)c1ccccc1CSC1=NC(Cc2ccccc2)C(=O)N1` (centres unmarked) [Example 23, 2-(2-dimethylaminobenzylthio)-5-benzylimidazolin-4-one], the inhibition in vivo at 30 mg/kg in series [3] was found to be 83.6%.

With `CCC1(CC)N=C(SCc2ccccc2N(C)C)NC1=O` [Example 28, 2-(2-dimethylaminobenzylthio)-5,5-diethylimidazolin-4-one], the “Inhibitory Percent” value in series [1] was 73.8%. As to `O=C1N=C(SCc2ccccn2)N/C1=C/c1ccccc1` [Example 4, 2-(2-pyridylmethylthio)-5-trans-benzylideneimidazolin-4-one], the “Inhibitory Percent” value in series [1] was 63.3%. On to `C=C1NC(SCc2ccccn2)=NC1=O` [Example 5, 2-(2-pyridylmethylthio)-5-trans-methylideneimidazolin-4-one], for which the “Inhibitory Percent” value in series [1] was found to be 23.3%. For `CN(C)c1ccccc1CSC1=NC(=O)/C(=C\c2ccccc2)N1` [Example 18, 2-(2-dimethylaminobenzylthio)-5-trans-benzylideneimidazolin-4-one], the figures for the “Inhibitory Percent” value in series [3] (30 mg/kg) and in series [1] were 37.4% and 34.1%, respectively. For the compound `CCC1(C)C(=O)N=C(SCc2ccccc2N(C)C)N1C(C)=O` (centres unmarked) [Example 34, 1-N-acetyl-2-(2-dimethylaminobenzylthio)-5-ethyl-5-methyl-2-imidazolin-4-one], the inhibition in vivo at 30 mg/kg in series [3] was 52%. With `CCC1(c2ccccc2)N=C(SCc2ccccn2)NC1=O` (centres unmarked) [Example 13, 2-(2-pyridylmethylthio)-5-ethyl-5-phenylimidazolin-4-one], in series [1], the “Inhibitory Percent” value was determined as 46.3%. As for `CC(C)CN(C)c1ccccc1CSC1=NC(C)(C)C(=O)N1` [Example 21, 2-(2-N-isobutyl-N-methylaminobenzylthio)-5,5-dimethylimidazolin-4-one], the inhibition in vivo at 30 mg/kg in series [3] amounted to 99.6%. Regarding `CC1(C)N=C(SCc2ccccn2)NC1=O` [Example 8, 2-(2-pyridylmethylthio)-5,5-dimethylimidazolin-4-one], the inhibition in vivo at 30 mg/kg in series [3] was 93%. For `CN(C)c1ccccc1CSC1=NC(C)(c2ccccc2)C(=S)N1` (centres unmarked) [Example 41, 2-(2-dimethylaminobenzylthio)-5-phenyl-5-methylimidazolin-4-thione], the inhibition in vivo at 30 mg/kg in series [3] turned out to be 74.5%. `CCCCC1(CC)N=C(SCc2ccccc2N(C)C)NC1=O` (centres unmarked) [Example 29, 2-(2-dimethylaminobenzylthio)-5-butyl-5-ethylimidazolin-4-one]: the inhibition in vivo at 30 mg/kg in series [3] was 69.5%. In the case of `O=C1CN=C(SCc2ccccn2)N1` [Example 1, 2-(2-pyridylmethylthio)imidazolin-4-one], in series [3], the inhibition in vivo at 30 mg/kg came to 71.9%.

For `CN(C)c1ccccc1CSC1=NC(C)(C)C(=S)N1` [Example 39, 2-(2-dimethylaminobenzylthio)-5,5-dimethylimidazolin-4-thione], the LD50 at 336 h in series [4] is no less than 2000 mg/kg. As to `CC1(C)N=C(SCc2cccc3cccnc23)NC1=S` [Example 44, 2-(8-quinolynylmethylthio)-5,5-dimethylimidazolin-4-thione], in series [1], the “Inhibitory Percent” value is reported as 28.8%. For `CC1N=C(SCc2ccccn2)NC1=O` (centres unmarked) [Example 9, 2-(2-pyridylmethylthio)-5-methylimidazolin-4-one], the inhibition in vivo at 30 mg/kg in series [3] came out at 94.9%.

For the origin of these results see US5733922A, “Imidazole derivative, pharmaceutically acceptable salt thereof, and anti-ulcer drug including such derivative or salt” (Arax Co., Ltd., priority 1995, dated 1998).
